Test results from patent publication US20170368148A1, “USES OF A PTHrP ANALOGUE IN REDUCING FRACTURE RISK” (RADIUS HEALTH, INC., priority 2015, published 2017).
Where two headings read alike, the source gives them in different places. Marks after values point to notes of the source that are not given here.

Assays:
[1] = tested on: postmenopausal women with osteoporosis
[2] = tested on: postmenopausal women with osteoporosis; assay: ACTIVExtend study: fractures at month 25 (abaloparatide or placebo 18 months, then alendronate 6 months); format: in vivo, human; conditions: abaloparatide 80 μg/day or placebo 18 months
[3] = tested on: postmenopausal women with osteoporosis; conditions: in vivo
Experimental: (§1) Safety evaluations performed in the ACTIVE trial included physical examinations, vital signs, 12-lead electrocardiograms, or ECGs, clinical laboratory tests and monitoring, and recording of adverse events. Specific safety assessments included pre-dose and post-dose (four hours) determination of serum calcium, determination of creatinine clearance, post-dose ECG assessments at selected visits, and assessments of postural hypotension (60 minutes post-dose) at selected clinic visits.
(§2) The ACTIVE trial also evaluated several potential safety measures, including blood calcium levels, orthostatic hypotension, nausea, dizziness, and injection-site reactions.

[4] = tested on: postmenopausal women with osteoporosis; assay: ACTIVE trial: adverse events; conditions: 18 months; abaloparatide 80 μg (n = 822), teriparatide 20 μg (n = 818)
Experimental: as §1, §2

[5] = tested on: postmenopausal women with osteoporosis; conditions: in vivo; remark: listed apart in the source
Experimental: All subjects received supplemental calcium (500-1000 mg) and vitamin D (400-800 IU) per local practice. […] Blood calcium levels were assessed 4-hours and 24-hours after drug administration. Subjects were monitored for adverse events (AEs) and local tolerance at the injection site at each visit. Clinical and laboratory safety parameters, electrocardiograms, were also measured at each study visit.
Efficacy and safety were assessed using all randomized patients who received at least one dose of study drug. Baseline characteristics and safety parameters were summarized using descriptive statistics. […] All hypotheses were tested at the 2-sided 5% significance level.

[6] = during alendronate treatment, ACTIVExtend

With alendronate [PBO/ALN] the “AE: Abdominal pain, upper” value [1, 6] was 2.6%, the “AE: Arthralgia” value [1, 6] was 4.7% and the “AE: Back pain” value [1, 6] was 2.1%. For the same compound, the “AE: Bone Pain” value [1, 6] was 1.2%, the “AE: Diarrhea” value [1, 6] was 1.4% and the “AE: Dyspepsia” value [1, 6] was 2.2%. For the same compound, the “AE: Hypercalciuria” value [1, 6] was 1.6%, the “AE: Hypertension” value [1, 6] was 2.1% and the “AE: Nasopharyngitis” value [1, 6] was 1.4%. For the same compound, the “AE: Pain in extremity” value [1, 6] was 2.4%, the “AE: Upper respiratory tract infection” value [1, 6] was 4.5% and the “AE: Urinary tract infection” value [1, 6] was 1.0%. The “AE: Influenza” value ([1]; human, in vivo) was 1.0%, the “Fracture Rate, incident clinical fractures” value [2] was 7.1% and the “Fracture Rate, incident non-vertebral fractures” value [2] was 5.5%. For the same compound, the “Fracture Rate, major osteoporotic fractures” value [2] was 4.6% and the “Fracture Rate, new incident vertebral fractures” value [2] was 4.4%.
`CC[C@H](C)[C@H](NC(=O)[C@H](CO)NC(=O)[C@H](CCCCN)NC(=O)CNC(=O)[C@H](CCCCN)NC(=O)[C@H](CC(=O)O)NC(=O)[C@H](Cc1cnc[nH]1)NC(=O)[C@H](CC(C)C)NC(=O)[C@H](CC(C)C)NC(=O)[C@H](CCC(N)=O)NC(=O)[C@H](Cc1cnc[nH]1)NC(=O)[C@H](CCC(=O)O)NC(=O)[C@H](CO)NC(=O)[C@@H](NC(=O)[C@H](C)N)C(C)C)C(=O)N[C@@H](CCC(N)=O)C(=O)N[C@@H](CC(=O)O)C(=O)N[C@@H](CC(C)C)C(=O)N[C@@H](CCCNC(=N)N)C(=O)N[C@@H](CCCNC(=N)N)C(=O)N[C@@H](CCCNC(=N)N)C(=O)N[C@@H](CCC(=O)O)C(=O)N[C@@H](CC(C)C)C(=O)N[C@@H](CC(C)C)C(=O)N[C@@H](CCC(=O)O)C(=O)N[C@@H](CCCCN)C(=O)N[C@@H](CC(C)C)C(=O)N[C@@H](CC(C)C)C(=O)NC(C)(C)C(=O)N[C@@H](CCCCN)C(=O)N[C@@H](CC(C)C)C(=O)N[C@@H](Cc1cnc[nH]1)C(=O)N[C@H](C(=O)N[C@@H](C)C(N)=O)[C@@H](C)O` [abaloparatide, [Glu^22,25, Leu^23,28,31, Aib^29, Lys^26,30]hPTHrP(1-34)NH2] was tested, and the “AE: Hypercalcemia (serum albumin-corrected calcium value ≧10.7 mg/dL)” value [3] was 3.41%^†, the “AE: Influenza” value [4] was 6.3% and the “Anti-abaloparatide antibody titer in positive patients” value [5] was ≤ 1:20. For the same compound, the “Patients with positive anti-abaloparatide antibody titer” value [5] was 12%.
